In US20080280994A1, “Ascophyllum Compositions and Methods” (OCEAN NUTRITION CANDA LTD., priority 2004, published 2008):

What was measured:
[1] = system: STZ-diabetic mice; assay: Sucrose challenge in diabetic mice; format: in vivo
Protocol: Animal model. Mice were made diabetic as described above and were allotted to eight groups (10 animals per group) as follows: […] Treatment and Measurement. Test samples were prepared at appropriate concentrations so that the required doses were delivered in a volume of 0.2 mL/20 g body weight. Acarbose was also dissolved in 0.5% CMC ([…]) and given at a dose of 25 mg/kg BW. Ten minutes after gavaging of samples, blood was sampled from tail vein for glucose measurement (Time 0). The animals were then gavaged with sucrose (20% in water at a dose of 2 g/kg body weight). […] A group of non-diabetic mice were given an equivalent volume of saline (0.2 ml/20 g BW).

[2] = system: STZ-diabetic mice (KunMing strain); assay: 4-week treatment study in streptozotocin-induced diabetic mice; format: in vivo
Protocol: Animal Model. […] Diabetes was induced in mice with a single injection of streptozotocin (STZ). After fasting for 12 hrs, male mice with body weight above 20 g were given STZ dissolved in sodium citrate buffer via tail vein at a dose of 110 mg/kg body weight. […] Diabetic animals were divided into 5 groups (10 mice per group). Of these, 3 groups were treated with test samples, one group was a control group, receiving vehicle alone, and one group received metformin, an oral anti-diabetic agent. A sixth group, consisting of non-diabetic mice, was also included for comparison. They were treated with vehicle alone. Mice were housed 5 to a cage with free access to food and water. Test Samples and Dose. A. nodosum samples tested were as follows: 1) crude extract, CE 2) polyphenolic fraction, PPF 3) polysaccharide fraction, PSF Samples were dissolved in carboxymethylcellulose (CMC; 0.5%). Test sample solutions were prepared every morning at a concentration of 20 mg/ml in distilled water and given via gavage at a volume of 0.2 mL/20 g BW to deliver a dose of 200 mg/kg body weight. The control groups were gavaged with distilled water (0.2 mL/20 g BW). […] Animals were treated daily for 4 weeks. Measurements.

[3] = sucrose challenge, acarbose-treated mice
[4] = STZ-diabetic mice, Day 28, dose 200 mg/kg, mean ± S.D.
[5] = STZ-diabetic mice, daily gavage, printed dose 200 mg/kg, mean ± S.D.

C[C@H]1O[C@H](O[C@H]2[C@H](O)[C@@H](O)[C@@H](O[C@H]3[C@H](O)[C@@H](O)C(O)O[C@@H]3CO)O[C@@H]2CO)[C@H](O)[C@@H](O)[C@@H]1N[C@H]1C=C(CO)[C@@H](O)[C@H](O)[C@H]1O (stereo partly drawn) [Acarbose, acarbose]
serum glucose level, 0 min ([1]; sucrose challenge 2 g/kg, dose 25 mg/kg, 0 min): 15.64 ± 2.6 mmol/L
serum glucose level, 10 min ([1]; sucrose challenge 2 g/kg, dose 25 mg/kg, 10 min): 21.71 ± 3.6 mmol/L
serum glucose level, 30 min ([1]; sucrose challenge 2 g/kg, dose 25 mg/kg, 30 min): 24.67 ± 4.1 mmol/L
serum glucose level, 60 min ([1]; sucrose challenge 2 g/kg, dose 25 mg/kg, 60 min): 19.80 ± 4.8 mmol/L
serum glucose level, 120 min ([1]; sucrose challenge 2 g/kg, dose 25 mg/kg, 120 min): 14.29 ± 2.9 mmol/L
area-under-the-curve (AUC) for glucose [1, 3]: 2340 units (mmol/L×120 min.)
reduction of glucose AUC versus STZ-mice [1, 3]: 33%

CN(C)C(=N)N=C(N)N [Metformin, metformin]
serum glucose versus STZ-diabetic mice (in words) ([2]; 4-week treatment, P<0.05): significantly lower serum glucose at each of the time points
blood total antioxidant level (in words) ([2]; Day 28): significant increases in antioxidant activity
glycated Hb versus STZ-diabetic mice (in words) ([2]; Day 28): reduced
total cholesterol versus STZ-diabetic mice (in words) ([2]; Day 28): reduced
liver glycogen level (in words) ([2]; Day 28, STZ-diabetic mice): significantly increased liver glycogen level
AntIoxidant activity (U/ml serum) [2, 4]: 8.15 ± 1.8 U/ml serum
Glycated Hb [2, 4]: 5.22 ± 0.5 mmol/L
Liver glycogen (mg/g wet tissue) [2, 4]: 5.51 ± 0.8 mg/g wet tissue
Total Cholesterol [2, 4]: 1.93 ± 0.7 mmol/L
Blood glucose (mM) Day 7 [2, 5]: 13.04 ± 5.8 mM
Blood glucose (mM) Day 14 [2, 5]: 11.60 ± 4.1 mM
Blood glucose (mM) Day 21 [2, 5]: 12.38 ± 4.7 mM
Blood glucose (mM) Day 28 [2, 5]: 13.59 ± 7.7 mM
Blood glucose (mM) Day 0 ([2]; STZ-diabetic mice, start of treatment period, mean ± S.D.): 13.50 ± 2.5 mM
